Assay results reported in patent US20260308158A1, “TARGETING RNAS ASSOCIATED WITH TAUOPATHIES WITH SMALL MOLECULES” (University of Florida Research Foundation, Incorporated, priority 2023, published 2026).

What was measured:
[1] = Body weight / tolerability, WT mice; assay type: in vivo, WT mouse (C57BL/6J); conditions: 100 mg/kg p.o. q.o.d., 20 days
Text: (§1) hTau Mice Studies. htau mice and WT mice (C57BL/6J) were purchased from Jackson Laboratories. htau mice were maintained in-house through breeding between htau+/− mice. Genotype was confirmed by PCR amplification as previously described.^18 Only homozygous mice were used in in vivo studies. Mice were randomly assigned to a treatment group, which were age- and gender-matched (n=X). In these studies, mice were >9 months of age since cognitive and physiological impairments in htau mice was age-dependent and were not presented in young mice (<4 months) with early-stage tau pathology.^42 Mice were orally administered vehicle (5/5/90 DMSO/Tween-80/H2O) or 100 mg/kg of 2 in the same formulation every other day (q.o.d.). During the treatment period, nesting activity was assessed, as describe in Nesting Activity below. After 20 days, the mice were euthanized (in accordance with guidelines provided by the American Veterinarian Medical Association), and the brain was harvested for analysis. One hemisphere of the brain was frozen at −80° C. for RT-qPCR analyses while the other was used for histological studies.

[2] = Body weight / tolerability, htau mice; assay type: in vivo, htau mouse; conditions: 100 mg/kg p.o. q.o.d., 20 days
Text: as §1

[3] = target: DDPAC MAPT SRE RNA; experiment: Fluorescent binding affinity, DDPAC SRE RNA; conditions: inherent fluorescence, n=3
Protocol: (§2) Fluorescent Binding Affinity Measurements. Binding assays were completed as previously described.^30 Briefly, the RNA of interest was folded in 1× Assay Buffer-1 (AB1: 8 mM Na2HPO4, pH 7.0, 185 mM NaCl, and 1 mM EDTA) by heating at 95° C. for 30 s followed by slowly cooling to room temperature. Bovine serum albumin (BSA) was then added to a final concentration of 40 μg/mL to afford 1× Assay Buffer-2 (AB2: 8 mM Na2HPO4, pH 7.0, 185 mM NaCl, 1 mM EDTA, and 40 μg/mL BSA). The RNA solution was serial diluted with 1×AB2. Then, compound of interest was added to the RNA solutions to a final concentration of 0.5 μM. […] Fluorescence intensity was measured using a Tecan Plate Reader (Gain: 100, Integration time: 40 μs). […] The change in fluorescence of the small molecule was calculated by its comparison to samples lacking RNA. Binding affinity was calculated using Equation 1, as previously described:^30
(§3) where I and I0 are the measured fluorescence intensity of the compound with or without RNA, respectively, Δε is the difference between the fluorescence intensity with the infinite concentration of RNA and the fluorescence intensity without RNA, [SM]0 and [RNA]0 are the concentrations of the small molecule (SM) and RNA, respectively, and Kd is the dissociation constant.

[4] = target: WT I17T mutant RNA; experiment: Fluorescent binding affinity, WT I17T mutant RNA
Protocol: as §2, §3

[5] = tested on: DDPAC MAPT mini-gene pre-mRNA; experiment: Chem-CLIP / C-Chem-CLIP in HeLa cells transfected with DDPAC mini-gene; assay type: cell-based; conditions: HeLa, DDPAC mini-gene
Protocol: Measuring Cellular Occupancy by Chem-CLIP and C-Chem-CLIP. LAN5 cells were grown to ~80% confluency in 100 mm diameter dishes. HeLa cells were transfected as described in the Luciferase Reporter Assay to Study Exon 10 Alternative Splicing except they were re-plated in 100 mm diameter dishes and grown to ~80% confluency (~1 day). The cells were then treated with 1.5 μM of 3 or 4 for 12 h. For C-Chem-CLIP, dilutions of competing compounds 1 or 2 were pre-incubated with cells for 12 h prior to adding 3. After addition of 3, the cells were incubated for an additional 12 h. After the treatment period, whether for Chem-CLIP or C-Chem-CLIP studies, the cells were washed with 10 mL of 1×DPBS. Ice-cold 1×DPBS (10 mL) was then added to the plate followed by irradiation with 365 nm light in a UV Stratalinker 2400 (Stratagene). Cells were scraped with a cell scraper, transferred to a 15 mL conical vial, and collected by centrifugation. Total RNA was extracted using TRIzol LS Reagent (Invitrogen) per the manufacturer's protocol. […]
RT-qPCR was performed on RNA samples before and after pull-down as described in Real-Time Quantitative PCR to enable calculation of fold enrichment in the pulled down samples. Relative fold enrichment of tau pre-mRNA was measured using Equation 3: […]

[6] = tested on: DDPAC model RNA; experiment: Optical melting, DDPAC RNA; assay type: binding; conditions: 2 at 1.5 μM
Protocol: Optical Melting Experiments. The thermal stabilities of WT, DDPAC, and DDPAC+I17T model RNAs were analyzed by optical melting in the presence or absence of compound 1 or 2 as previously described.^18 The RNAs (2 μM) were heated to 95° C. in 1×PBS buffer and slowly cooled to room temperature. The samples were then cooled to 15° C. in the presence of compound 1 (10 μM; 0.1% (v/v) DMSO), 2 (1.5 μM; 0.1% (v/v) DMSO) or vehicle (0.1% (v/v) DMSO) and then heated to 85° C. at a rate of 1° C. per min. Absorbance as a function of temperature was measured at 260 nm using a Beckman Coulter DU800 UV/vis spectrophotometer. Melting curves were fitted with MeltWin 3.5.^31

Kd [3]: 580 ± 100 nM
Kd (estimated; no saturable binding) [4]: > 50000 nM
Structure (SMILES): COc1cc(N)ncc1CCCN(C)CCCn1cnc2c3ccccc3n(C)c2c1=O [Compound 2, 3-(3-((3-(6-amino-4-methoxypyridin-3-yl)propyl)(methyl)amino)propyl)-5-methyl-3,5-dihydro-4H-pyrimido[5,4-b]indol-4-one]
change in weight [1]: no change in the weight
change in weight [2]: no change in the weight
tolerability [2]: well tolerated
competition of the interaction of 3 with reporter [5]: competed dose dependently
increase of Tm [6]: 1.36±0.11 °C
